Experimental data reported in PubChem BioAssay AID330 (DTP/NCI, 2004).
Several values for one entry are separate records, joined by “and”; a condition that tells them apart may be missing. Equal values may be shown once. Toxic doses and inconclusive results are not listed.

System: P388 leukemia ip, CD2F1 mice, survival T/C
Assay: NCI In Vivo Anticancer Drug Screen. Data for tumor model P388 Leukemia (intraperitoneal) in CD2F1 (CDF1) mice
Conditions: endpoint: median survival time, higher = longer survival
Outline: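 Mice carrying the transplanted tumor received test compound or vehicle. Survival was recorded in each group, and the value is the treated-group measurement divided by that of the vehicle-treated control group.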

[1] = dose: 50.0 mg/kg/injection, schedule: Q01DX009 (ip), vehicle: saline with Tween-80
[2] = dose: 100.0 mg/kg/injection, schedule: Q01DX009 (ip), vehicle: saline with Tween-80

SMILES: CO[C@H]1C[C@](C)(O)Cc2cc3c(c(O)c21)C(=O)c1c(O)cc2c(c1C3=O)O[C@@H]1O[C@@]2(C)[C@H](O)[C@@H](N(C)C)[C@@H]1O
- T/C (dose: 1.5 mg/kg/injection, schedule: Q01DX005 (iv), vehicle: clinical formulation): 115 % of control
- T/C (dose: 1.56 mg/kg/injection, schedule: Q01DX009 (ip), vehicle: other): 156 % of control and 166 % of control
- T/C (dose: 1.6 mg/kg/injection, schedule: Q01DX009 (oral), vehicle: other): 95 % of control
- T/C (dose: 2.5 mg/kg/injection, schedule: Q01DX005 (ip), vehicle: clinical formulation): 158 % of control and 166 % of control
- T/C (dose: 2.5 mg/kg/injection, schedule: Q01DX005 (ip), vehicle: other): 165 % of control
- T/C (dose: 3.0 mg/kg/injection, schedule: Q01DX005 (iv), vehicle: other): 124 % of control
- T/C (dose: 3.0 mg/kg/injection, schedule: Q01DX009 (ip), vehicle: other): 159 % of control
- T/C (dose: 3.12 mg/kg/injection, schedule: Q01DX009 (ip), vehicle: saline + alcohol): 157 % of control
- T/C (dose: 3.13 mg/kg/injection, schedule: Q01DX009 (oral), vehicle: other): 100 % of control and 102 % of control
- T/C (dose: 3.13 mg/kg/injection, schedule: Q01DX009 (oral), vehicle: saline): 103 % of control
- T/C (dose: 4.5 mg/kg/injection, schedule: Q01DX005 (ip), vehicle: other): 156 % of control and 161 % of control
- T/C (dose: 4.5 mg/kg/injection, schedule: Q01DX005 (iv), vehicle: clinical formulation): 160 % of control and 169 % of control
- T/C (dose: 5.0 mg/kg/injection, schedule: Q01DX005 (ip), vehicle: clinical formulation): 185 % of control and 190 % of control
- T/C (dose: 5.0 mg/kg/injection, schedule: Q01DX005 (ip), vehicle: distilled water + Tween-80): 158 % of control and 178 % of control
- T/C (dose: 5.0 mg/kg/injection, schedule: Q01DX005 (ip), vehicle: other): 185 % of control
- T/C (dose: 6.25 mg/kg/injection, schedule: Q01DX009 (ip), vehicle: saline + alcohol): 157 % of control
- T/C (dose: 6.25 mg/kg/injection, schedule: Q01DX009 (oral), vehicle: other): 110 % of control and 113 % of control and 122 % of control
- T/C (dose: 6.25 mg/kg/injection, schedule: Q04DX003 (ip), vehicle: other): 162 % of control and 165 % of control
- T/C (dose: 6.48 mg/kg/injection, schedule: Q04DX003 (ip), vehicle: other): 180 % of control
- T/C (dose: 6.7 mg/kg/injection, schedule: Q01DX005 (ip), vehicle: other): 172 % of control and 176 % of control
- T/C (dose: 6.7 mg/kg/injection, schedule: Q01DX005 (iv), vehicle: clinical formulation): 187 % of control and 197 % of control
- T/C (dose: 6.7 mg/kg/injection, schedule: Q01DX005 (iv), vehicle: other): 161 % of control and 162 % of control
- T/C (dose: 10.0 mg/kg/injection, schedule: Q01DX005 (ip), vehicle: clinical formulation): 235 % of control and 238 % of control
- T/C (dose: 10.0 mg/kg/injection, schedule: Q01DX005 (ip), vehicle: distilled water + Tween-80): 180 % of control and 243 % of control
- T/C (dose: 10.0 mg/kg/injection, schedule: Q01DX005 (ip), vehicle: other): 195 % of control (2×) and 218 % of control
- T/C (dose: 10.0 mg/kg/injection, schedule: Q01DX005 (iv), vehicle: clinical formulation): 208 % of control and 211 % of control
- T/C (dose: 10.0 mg/kg/injection, schedule: Q01DX005 (iv), vehicle: other): 176 % of control and 193 % of control
- T/C (dose: 10.8 mg/kg/injection, schedule: Q04DX003 (ip), vehicle: other): 183 % of control
- T/C (dose: 12.5 mg/kg/injection, schedule: Q01DX001 (ip), vehicle: other): 155 % of control and 157 % of control
- T/C (dose: 12.5 mg/kg/injection, schedule: Q01DX001 (sc), vehicle: other): 103 % of control
- T/C (dose: 12.5 mg/kg/injection, schedule: Q01DX009 (ip), vehicle: saline + alcohol): 178 % of control
- T/C (dose: 12.5 mg/kg/injection, schedule: Q01DX009 (oral), vehicle: other): 158 % of control
- T/C (dose: 12.5 mg/kg/injection, schedule: Q01DX009 (oral), vehicle: saline): 156 % of control
- T/C (dose: 12.5 mg/kg/injection, schedule: Q04DX003 (ip), vehicle: other): 166 % of control and 187 % of control
- T/C (dose: 15.0 mg/kg/injection, schedule: Q01DX005 (ip), vehicle: other): 224 % of control and 237 % of control
- T/C (dose: 15.0 mg/kg/injection, schedule: Q01DX005 (iv), vehicle: clinical formulation): 215 % of control and 224 % of control
- T/C (dose: 15.0 mg/kg/injection, schedule: Q01DX005 (iv), vehicle: other): 196 % of control
- T/C (dose: 15.0 mg/kg/injection, schedule: Q01DX009 (oral), vehicle: other): 197 % of control
- T/C (dose: 18.0 mg/kg/injection, schedule: Q04DX003 (ip), vehicle: other): 240 % of control
- T/C (dose: 20.0 mg/kg/injection, schedule: Q01DX005 (ip), vehicle: clinical formulation): 117 % of control and 284 % of control
- T/C (dose: 20.0 mg/kg/injection, schedule: Q01DX005 (ip), vehicle: distilled water + Tween-80): 270 % of control and 280 % of control
- T/C (dose: 20.0 mg/kg/injection, schedule: Q01DX005 (ip), vehicle: other): 284 % of control
- T/C (dose: 22.0 mg/kg/injection, schedule: Q01DX009 (oral), vehicle: other): 231 % of control
- T/C (dose: 22.5 mg/kg/injection, schedule: Q01DX005 (ip), vehicle: other): 346 % of control
- T/C (dose: 25.0 mg/kg/injection, schedule: Q01DX001 (ip), vehicle: other): 150 % of control and 160 % of control
- T/C (dose: 25.0 mg/kg/injection, schedule: Q01DX001 (sc), vehicle: other): 106 % of control and 112 % of control
- T/C (dose: 25.0 mg/kg/injection, schedule: Q01DX009 (ip), vehicle: saline + alcohol): 231 % of control
- T/C (dose: 25.0 mg/kg/injection, schedule: Q01DX009 (oral), vehicle: other): 111 % of control and 211 % of control and 96 % of control
- T/C (dose: 25.0 mg/kg/injection, schedule: Q01DX009 (oral), vehicle: saline): 229 % of control
- T/C (dose: 25.0 mg/kg/injection, schedule: Q04DX003 (ip), vehicle: other): 192 % of control and 193 % of control
- T/C (dose: 30.0 mg/kg/injection, schedule: Q04DX003 (ip), vehicle: other): 247 % of control
- T/C (dose: 50.0 mg/kg/injection, schedule: Q01DX001 (ip), vehicle: other): 157 % of control and 197 % of control
- T/C (dose: 50.0 mg/kg/injection, schedule: Q01DX001 (sc), vehicle: other): 100 % of control and 122 % of control
- T/C (dose: 50.0 mg/kg/injection, schedule: Q01DX009 (oral), vehicle: other): 101 % of control and 103 % of control and 91 % of control
- T/C (dose: 50.0 mg/kg/injection, schedule: Q01DX009 (oral), vehicle: saline): 91 % of control
- T/C (dose: 50.0 mg/kg/injection, schedule: Q04DX003 (ip), vehicle: other): 182 % of control and 252 % of control
- T/C (dose: 100.0 mg/kg/injection, schedule: Q01DX001 (ip), vehicle: other): 169 % of control
- T/C (dose: 100.0 mg/kg/injection, schedule: Q01DX001 (sc), vehicle: other): 105 % of control
- T/C (dose: 200.0 mg/kg/injection, schedule: Q01DX001 (ip), vehicle: other): 175 % of control
- T/C (dose: 200.0 mg/kg/injection, schedule: Q04DX003 (ip), vehicle: other): 95 % of control

SMILES: Cc1cc(O)c(C(c2ccc3c(c2)OCO3)c2c(O)cc(C)[nH]c2=O)c(=O)[nH]1
- T/C [1]: 92 % of control
- T/C [2]: 98 % of control
- T/C (dose: 200.0 mg/kg/injection, schedule: Q01DX009 (ip), vehicle: saline with Tween-80): 95 % of control

SMILES: O=[N+]([O-])c1cc(S(=O)(=O)c2ccc(F)c([N+](=O)[O-])c2)ccc1F
- T/C (dose: 3.12 mg/kg/injection, schedule: Q01DX009 (ip), vehicle: Klucel (hydroxypropylcellulose) (HPC)): 102 % of control
- T/C (dose: 6.25 mg/kg/injection, schedule: Q01DX009 (ip), vehicle: Klucel (hydroxypropylcellulose) (HPC)): 108 % of control
- T/C (dose: 12.5 mg/kg/injection, schedule: Q01DX009 (ip), vehicle: Klucel (hydroxypropylcellulose) (HPC)): 114 % of control
- T/C (dose: 25.0 mg/kg/injection, schedule: Q01DX009 (ip), vehicle: Klucel (hydroxypropylcellulose) (HPC)): 108 % of control

SMILES: COC(=O)C(Cl)(Cl)C1(c2ccccc2)OCC(C)(C)N1C(=O)C(Cl)Cl (centres undefined)
- T/C (dose: 100.0 mg/kg/injection, schedule: Q01DX001 (ip), vehicle: saline with Tween-80): 100 % of control
- T/C (dose: 200.0 mg/kg/injection, schedule: Q01DX001 (ip), vehicle: saline with Tween-80): 100 % of control
- T/C (dose: 400.0 mg/kg/injection, schedule: Q01DX001 (ip), vehicle: saline with Tween-80): 100 % of control

SMILES: [Cl][Hg][c]1ccccc1N=Nc1ccccc1I
- T/C (dose: 12.5 mg/kg/injection, schedule: Q01DX009 (ip), vehicle: saline with Tween-80): 101 % of control
- T/C (dose: 25.0 mg/kg/injection, schedule: Q01DX009 (ip), vehicle: saline with Tween-80): 96 % of control
- T/C [1]: 113 % of control and 98 % of control
- T/C [2]: 122 % of control and 94 % of control

SMILES: CN(C)C(=S)N/N=C/c1ccccn1
- T/C (dose: 6.25 mg/kg/injection, schedule: Q01DX005 (ip), vehicle: Klucel (hydroxypropylcellulose) (HPC)): 115 % of control
- T/C (dose: 12.5 mg/kg/injection, schedule: Q01DX005 (ip), vehicle: Klucel (hydroxypropylcellulose) (HPC)): 115 % of control

SMILES: CCCCCOC(CN(C)C)C(Cl)(Cl)Cl (centres undefined)
- T/C (dose: 50.0 mg/kg/injection, schedule: Q01DX009 (ip), vehicle: Klucel (hydroxypropylcellulose) (HPC)): 100 % of control
- T/C (dose: 100.0 mg/kg/injection, schedule: Q01DX009 (ip), vehicle: Klucel (hydroxypropylcellulose) (HPC)): 100 % of control
- T/C (dose: 200.0 mg/kg/injection, schedule: Q01DX009 (ip), vehicle: Klucel (hydroxypropylcellulose) (HPC)): 101 % of control
